# Data reported in US20050019386A1 (priority 2001, published 2005).
# Legend:
# [1] = test system: ovarian carcinoma (human) on a nude mouse; assay: Oral application, tumour mass of human ovarian carcinoma on nude mouse; type: in vivo; conditions: oral form of administration, Taxol 50 mg bolus
# [2] = test system: two human glioblastoma in a nude model; conditions: free form, 12.5 mg/kg/4 days; cited from earlier work
compound,measurement,setting,value
"CC(=O)O[C@H]1C(=O)[C@@]2(C)[C@H]([C@H](OC(=O)c3ccccc3)[C@]3(O)C[C@H](OC(=O)[C@H](O)[C@@H](NC(=O)c4ccccc4)c4ccccc4)C(C)=C1C3(C)C)[C@]1(OC(C)=O)CO[C@@H]1C[C@@H]2O [unencapsulated taxol, paclitaxel]",effectivity determined on the basis of the tumour mass,[1],hardly being reduced
same,growth of the tumour,[2],significant reduction of the growth of the tumour
